Assay results published in patent US20240415790A1, “A COMPOSITION FOR USE IN THE TREATMENT OF INTERVERTEBRAL DISC HERNIATION” (STAYBLE THERAPEUTICS AB, priority 2020, published 2024).

Test system: porcine lumbar spine (L3/4 IVD)
Test: Flexural rigidity of the isolated porcine lumbar spine after intradiscal LA (series 1)
Type: in vivo, pig
Settings: 28 days
Description: The pigs were pre-medicated by intramuscular injection of dexmedetomidin (Domitor®vet, Orion Pharma, Sollentuna, Sweden) and a commercial mixture of zolazepam and tiletamine (Zoletil®vet 100, Virbac, Carros, France) in conventional doses. Anesthesia was maintained by buprenophine ([…], Orion Pharma) 0.03 mg/kg intramuscularly, carpofen (Rimadyl®vet, Orion Pharma) 4 mg/kg intravenously and isoflurane ([…] Pharma AB, Stockholm, Sweden) using a Servo 900 respirator (Siemens, Munich, Germany). Before recovering from anesthesia, atipamezol (Antisedan®vet, Orion Pharma) was given intramuscularly. On the first three days after surgery the pigs received oral carprofen 2 mg/kg twice daily. The pigs were placed on the right side. […] The concentration was determined based on the pilot experiments on the effects of LA on collagen secretion from human NP cells (as described in WO 2017/046030). […] The height and width of normally appearing NP (FIG. 6a) in the anteroposterior (short vertical double arrow) and bilateral (short horizontal double arrow) directions, respectively, were measured and expressed in relation to the height (long vertical double arrow), and width (long horizontal double arrow) of the IVD. […] The distances between the lateral processes of the vertebrae cranially and caudally to the injected IVD was measured with a caliper at full ipsi- or contralateral flexion. […]

CC(O)C(=O)O (centres unmarked) [LA, lactic acid]
Flexural rigidity (mm, mean ± SD) (pig L3/4 IVD, 0.2 mL LA 120 mg/mL intradiscal, n=6, difference of process distances at full flexion (lower = stiffer)): 2.7 ± 1.1 mm | Flexural rigidity, LA- vs placebo-injected and naive IVDs (pig, LA 120 mg/mL): marked difference in flexural rigidity
